Measured values from the CheMixHub viscosity set.

Experiment: xn = mol fraction of the nth substance listed

Cc1ccccc1 + CO
Conditions	viscosity [mPa·s]
293.15 K, 101 kPa, x1 = 0.0405	0.5903
293.15 K, 101 kPa, x1 = 0.0868	0.5951
293.15 K, 101 kPa, x1 = 0.1401	0.6009
293.15 K, 101 kPa, x1 = 0.2022	0.6067
293.15 K, 101 kPa, x1 = 0.2755	0.6121
293.15 K, 101 kPa, x1 = 0.3632	0.6167
293.15 K, 101 kPa, x1 = 0.4701	0.6194
293.15 K, 101 kPa, x1 = 0.6033	0.6184
293.15 K, 101 kPa, x1 = 0.7739	0.6098
293.15 K, 101 kPa, x2 = 0.2	0.582
293.15 K, 101 kPa, x2 = 0.4	0.601
293.15 K, 101 kPa, x2 = 0.6	0.62
293.15 K, 101 kPa, x2 = 0.8	0.623
293.16 K, 101 kPa, x2 = 0.7465	0.6073
293.16 K, 101 kPa, x2 = 0.8178	0.6149
293.16 K, 101 kPa, x2 = 0.9632	0.6049
298.15 K, 101 kPa, x1 = 0.0405	0.552
298.15 K, 101 kPa, x1 = 0.0868	0.5572
298.15 K, 101 kPa, x1 = 0.1401	0.5628
298.15 K, 101 kPa, x1 = 0.2022	0.5679
298.15 K, 101 kPa, x1 = 0.2755	0.573
298.15 K, 101 kPa, x1 = 0.3632	0.5779
298.15 K, 101 kPa, x1 = 0.4701	0.5803
298.15 K, 101 kPa, x1 = 0.6033	0.5796
298.15 K, 101 kPa, x1 = 0.7739	0.5809
298.15 K, 101 kPa, x2 = 0.0499	0.551
298.15 K, 101 kPa, x2 = 0.0998	0.547
298.15 K, 101 kPa, x2 = 0.1993	0.54
298.15 K, 101 kPa, x2 = 0.2269	0.5998
298.15 K, 101 kPa, x2 = 0.2998	0.541
298.15 K, 101 kPa, x2 = 0.3977	0.6168
298.15 K, 101 kPa, x2 = 0.4007	0.55
298.15 K, 101 kPa, x2 = 0.4998	0.557
298.15 K, 101 kPa, x2 = 0.5309	0.6284
298.15 K, 101 kPa, x2 = 0.6002	0.562
298.15 K, 101 kPa, x2 = 0.6377	0.6259
298.15 K, 101 kPa, x2 = 0.7	0.572
298.15 K, 101 kPa, x2 = 0.7252	0.6143
298.15 K, 101 kPa, x2 = 0.7983	0.599
298.15 K, 101 kPa, x2 = 0.8	0.569
298.15 K, 101 kPa, x2 = 0.8606	0.5847
298.15 K, 101 kPa, x2 = 0.9	0.561
298.15 K, 101 kPa, x2 = 0.9136	0.5831
298.15 K, 101 kPa, x2 = 0.9501	0.555
298.15 K, 101 kPa, x2 = 0.9597	0.5642
298.16 K, 101 kPa, x2 = 0.4032	0.5406
298.16 K, 101 kPa, x2 = 0.7442	0.5644
298.16 K, 101 kPa, x2 = 0.9625	0.5599
303 K, 101 kPa, x1 = 0.1006	0.549
303 K, 101 kPa, x1 = 0.2012	0.599
303 K, 101 kPa, x1 = 0.3009	0.585
303 K, 101 kPa, x1 = 0.3981	0.578
303 K, 101 kPa, x1 = 0.5016	0.573
303 K, 101 kPa, x1 = 0.6052	0.566
303 K, 101 kPa, x1 = 0.7001	0.562
303 K, 101 kPa, x1 = 0.8095	0.559
303 K, 101 kPa, x1 = 0.9011	0.537
303.15 K, 101.33 kPa, x1 = 0.0724	0.588
303.15 K, 101.33 kPa, x1 = 0.0912	0.531
303.15 K, 101.33 kPa, x1 = 0.1636	0.588
303.15 K, 101.33 kPa, x1 = 0.2105	0.539
303.15 K, 101.33 kPa, x1 = 0.2773	0.542
303.15 K, 101.33 kPa, x1 = 0.3517	0.569
303.15 K, 101.33 kPa, x1 = 0.3723	0.54
303.15 K, 101.33 kPa, x1 = 0.4963	0.529
303.15 K, 101.33 kPa, x1 = 0.5095	0.544
303.15 K, 101.33 kPa, x1 = 0.6126	0.539
303.15 K, 101.33 kPa, x1 = 0.6944	0.515
303.15 K, 101.33 kPa, x1 = 0.7321	0.532
303.15 K, 101.33 kPa, x1 = 0.8307	0.513
303.15 K, 101.33 kPa, x1 = 0.8541	0.527
303.15 K, 101.33 kPa, x1 = 0.888	0.516
303.15 K, 101.33 kPa, x1 = 0.9511	0.52
308.15 K, 101 kPa, x1 = 0.0405	0.4855
308.15 K, 101 kPa, x1 = 0.0868	0.4908
308.15 K, 101 kPa, x1 = 0.1401	0.4965
308.15 K, 101 kPa, x1 = 0.2022	0.5022
308.15 K, 101 kPa, x1 = 0.2755	0.5079
308.15 K, 101 kPa, x1 = 0.3632	0.5132
308.15 K, 101 kPa, x1 = 0.4701	0.517
308.15 K, 101 kPa, x1 = 0.6033	0.5188
308.15 K, 101 kPa, x1 = 0.7739	0.5021
308.15 K, 101.33 kPa, x1 = 0.0912	0.495
308.15 K, 101.33 kPa, x1 = 0.2105	0.502
308.15 K, 101.33 kPa, x1 = 0.2773	0.504
308.15 K, 101.33 kPa, x1 = 0.3723	0.502
308.15 K, 101.33 kPa, x1 = 0.4963	0.494
308.15 K, 101.33 kPa, x1 = 0.6944	0.482
308.15 K, 101.33 kPa, x1 = 0.8307	0.481
308.15 K, 101.33 kPa, x1 = 0.888	0.483
308.15 K, 101.33 kPa, x1 = 0.9511	0.488
313.15 K, 101.33 kPa, x1 = 0.0724	0.5
313.15 K, 101.33 kPa, x1 = 0.1636	0.503
313.15 K, 101.33 kPa, x1 = 0.3517	0.487
313.15 K, 101.33 kPa, x1 = 0.5095	0.485
313.15 K, 101.33 kPa, x1 = 0.6126	0.48
313.15 K, 101.33 kPa, x1 = 0.7321	0.475
313.15 K, 101.33 kPa, x1 = 0.8541	0.464
318.15 K, 101 kPa, x1 = 0.0405	0.4298
318.15 K, 101 kPa, x1 = 0.0868	0.4372
318.15 K, 101 kPa, x1 = 0.1401	0.4452
318.15 K, 101 kPa, x1 = 0.2022	0.4538
318.15 K, 101 kPa, x1 = 0.2755	0.4629
318.15 K, 101 kPa, x1 = 0.3632	0.4726
318.15 K, 101 kPa, x1 = 0.4701	0.4817
318.15 K, 101 kPa, x1 = 0.6033	0.4892
318.15 K, 101 kPa, x1 = 0.7739	0.4809
323.15 K, 101.33 kPa, x1 = 0.0724	0.433
323.15 K, 101.33 kPa, x1 = 0.1636	0.441
323.15 K, 101.33 kPa, x1 = 0.3517	0.407
323.15 K, 101.33 kPa, x1 = 0.5095	0.42
323.15 K, 101.33 kPa, x1 = 0.6126	0.413
323.15 K, 101.33 kPa, x1 = 0.7321	0.41
323.15 K, 101.33 kPa, x1 = 0.8541	0.408
